Results on three compounds are retold here after patent US6902726B1, “Reduction of odor gases from waste using plant-derived oils” (The United States of America as represented by the …, priority 2001, dated 2005).

Converted amounts (≈) assume the structure as drawn. Read-outs that look alike come from different tables or passages of the source.

A short description of data set [1]: recovery of added oil from liquid and solid fractions of swine waste, sealed flasks. The data set is classed as physicochemical. The method, then: Swine waste was processed similarly to the method described in Example 1. Fecal waste was randomly collected within 15 min of being excreted from animals fed a finishing diet of 85% corn and 11% soybean meal. Swine urine was collected from catheterized animals. Feces, urine, and distilled water in the ratio 50:35:15 were blended (Waring Inc., New Hartford, Conn.) for 1 min. Four replicate samples were obtained from this slurry and analyzed for various parameters and were considered as time 0. […] Gas volume and composition were analyzed in these flasks (anoxic slurry).
A 15-ml waste sample was collected from each flask. The sample was mixed with 15 ml of 0.5 M H2SO4, centrifuged at 2000×g for 20 min at 4° C., and stored at −20° C. until analyzed [Varel, V. H. et al. (1999), J Anim Sci 77:1162-1168]. L-Lactate concentrations were determined with a membrane-immobilized system involving lactate oxidase (Model 27, Yellow Springs Instrument Co., Yellow Springs, Ohio, USA). Short-chain volatile fatty acids (VFAs; acetate, propionate, butyrate, valerate, isobutyrate, isovalerate) and aromatic compounds (cresol, indole, skatole, 4-ethylphenol, phenol) were determined in an aliquot from the original acidified sample. […] Data were analyzed as a split-plot in time with the GLM procedure of (SAS).

Data set [2] concerns E. coli O157:H7. The note with it: cited from earlier work; for concentration that will kill E. coli O157:H7: Kim et al.; for minimum inhibitory concentration: pure culture system, Helander et al.
Data set [3] concerns stored cattle waste. Description: fermentation of stored cattle waste in open wide-mouthed jars (VFA, butyrate). The format is cell-based. The conditions noted are these: for production of short-chain volatile fatty acids: 13.3 mM individually, 56 days, versus combination of the two oils (6.7 mM each); for concentration that suppressed essentially all fermentation activity: cattle waste slurry of feces, urine and water (50:35:15). The method, then:
Waste was collected and processed as in Example 1. The waste slurry was divided into 1-liter aliquots and poured into wide-mouth (10 cm) jars (17 cm tall, 13.5 cm diameter, 1.6-liters). The plant oils (carvacrol, thymol and α-pinene) were added to the slurry without stirring or mixing. Plastic lids provided with the jars were used to cover approximately 90% of the jar opening to prevent moisture loss over the 56-day experimental period. A wide mouth pipette was inserted into the slurry from top to bottom at which time slurry contents were simultaneously withdrawn. Total VFA production and butyrate production were measured as described in Example 1.

Data set [4] deals with fecal coliforms. Description: fecal coliforms in swine waste, open jars. The data set is classed as cell-based. The method, then: (§1) Swine waste was collected and processed into a slurry as in Example 3. As in Example 2, the slurry was added to wide-mouth (10 cm) jars (17 cm tall, 13.5 cm in diameter, 1.6-liter volume) with the test antimicrobial additives, and plastic lids were placed to cover approximately 90% of the jar opening to prevent moisture loss over the experimental period. The sampling procedure was similar to that described above in Example 3, except no stirring or mixing occurred before the contents were sampled, and treatments were in triplicate.
(§2) Fecal coliforms were enumerated with 3 M Petrifilm Escherichia coli coliform count plates (3 M Microbiology Products, St. Paul, Minn.). Both of the carvacrol treatments reduced (P<0.05) the number of viable anaerobic bacteria in the waste within 2 days when compared to the controls (Table 2). This effect was sustained for 28 days. The initial decrease in the concentrations of anaerobic bacteria from day 0 to 2 in the control is presumably because VFAs increase in this batch system and become lethal to a select population of organisms.

The test system of data set [5] is stored swine waste. Kind of data set: fermentation of stored swine waste in anoxic flasks (gas, VFA, L-lactate, pH). The format is cell-based. The conditions noted are these: for methane detected: 13.3 mM, after 20 days; for gas production / production of propionate / production of valerate, isovalerate, isobutyrate and cresol: carvacrol or thymol at 13.3 or 16.75 mM, or combination to equal 16.75 mM; for lactate accumulation: oil added to swine waste; for concentration required to suppress most fermentation activity: swine waste slurry, same ratio (50:35:15). The method, then: Swine waste was processed similarly to the method described in Example 1. Fecal waste was randomly collected within 15 min of being excreted from animals fed a finishing diet of 85% corn and 11% soybean meal. Swine urine was collected from catheterized animals. Feces, urine, and distilled water in the ratio 50:35:15 were blended (Waring Inc., New Hartford, Conn.) for 1 min. Four replicate samples were obtained from this slurry and analyzed for various parameters and were considered as time 0. The waste slurry was divided into 500 ml aliquots and antimicrobial plant oils were added directly at the desired concentration, with one exception, in which carvacrol was dissolved 1:1 v:v in 95% ethanol, or 2 ml carvacrol/ethanol addition in these 500 ml slurries. The slurry was blended 1 min to provide a homogenous mixing of the antimicrobial oils and poured into 1-liter Erlenmeyer flasks, which were gassed with nitrogen (also after each sampling), sealed with a rubber stopper and left stationary at ambient temperature (25° C.). Treatments were in duplicate, and the contents of the flasks were gently swirled before being sampled at the days indicated in FIGS. 3-5. Gas volume and composition were analyzed in these flasks (anoxic slurry).
Head space gas was measured by displacement of a water-lubricated glass piston in a 50 ml syringe [Miller, T. L. et al. (1974), Appl Environ 27:985-987]. A 20-gauge needle with a Leurlok was inserted through the stopper, and a three-way valve was attached to the needle to allow gas volume to be periodically determined. Methane and hydrogen were analyzed as previously described [Varel, V. H. et al. (2000), Curr Microbiol 40:392-397].
(§3) A 15-ml waste sample was collected from each flask. The sample was mixed with 15 ml of 0.5 M H2SO4, centrifuged at 2000×g for 20 min at 4° C., and stored at −20° C. until analyzed [Varel, V. H. et al. (1999), J Anim Sci 77:1162-1168]. L-Lactate concentrations were determined with a membrane-immobilized system involving lactate oxidase (Model 27, Yellow Springs Instrument Co., Yellow Springs, Ohio, USA). Short-chain volatile fatty acids (VFAs; acetate, propionate, butyrate, valerate, isobutyrate, isovalerate) and aromatic compounds (cresol, indole, skatole, 4-ethylphenol, phenol) were determined in an aliquot from the original acidified sample. After thawing, the sample was centrifuged at 5° C., 10,000×g for 5 min. A 0.5 ml aliquot of the supernatant was combined with an internal standard, ethyl butyrate (0.25 mM final concentration), the sample was acidified with 0.4 ml of 3 M HC1, 0.8 ml ethyl ether was added, the sample was shaken vigorously for 1 min, and centrifuged at 5° C., 16,000×g for 1 min, and the ether phase was analyzed. To determine carvacrol and thymol concentrations, an aliquot of the original acidified sample which was not centrifuged, was treated as indicated above and extracted with ether twice. […] Aromatic, VFAs, thymol and carvacrol were analyzed with a Hewlett Packard 6890 gas chromatograph equipped with a flame ionization detector and a Hewlett Packard 5973 mass selective detector. Compounds were separated on a 30 m×0.32 mm diameter (0.5 μm film thickness) Innowax PEG column using the following program parameters: flow rate was 1.9 ml min^−1, initial temperature was 140° C., initial time was 3 min with a temperature ramp of 7.5° C. min^−1, with a final temperature of 230° C. for 4 min. Injector and detector temperatures were 250° C. Data were analyzed as a split-plot in time with the GLM procedure of (SAS).

Data set [6] has as its system stored swine waste. Kind of data set: VFA production from swine waste in open jars. The data set is classed as cell-based. The procedure:
as §3, with “analyzed.” for “analyzed. To determine carvacrol and thymol concentrations, an aliquot of the original acidified sample which was not centrifuged, was treated as indicated above and extracted with ether twice.”, “Compounds were separated on a 30 m×0.32 mm diameter (0.5 μm film thickness) Innowax PEG column using the following program parameters: flow rate was 1.9 ml min^−1, initial temperature was 140° C., initial time was 3 min with a temperature ramp of 7.5° C. min^−1, with a final temperature of 230° C. for 4 min. Injector and detector temperatures were 250° C.” left out, “(SAS). […]” for “(SAS).”

Data set [7] has as its system total culturable anaerobic bacteria. Description: total culturable anaerobic bacteria in swine waste, open jars. The note with it: 13.3 mM and 20 mM; within 2 days versus controls (P<0.05); sustained for 28 days. The format is cell-based. The procedure: as §1, §2
The subject of data set [8] is Salmonella typhimurium. The conditions noted are these: pure culture system; Helander et al.; cited from earlier work.
Data set [9] concerns stored cattle waste. Kind of data set: VFA and L-lactate production from cattle waste in anoxic flasks, eugenol versus thymol. The data set is classed as cell-based. The conditions noted are these: for L-lactate production: cattle waste, eugenol at all concentrations evaluated. The procedure: Waste was collected and processed as in Example 1. The waste slurry was divided into 500-ml aliquots and eugenol or thymol were added directly at the desired concentration. The slurry was blended 1 min to provide a homogeneous mixing of the antimicrobial oils and poured into a 1-liter Erlenmeyer flask, which was sealed with a rubber stopper and left stationary at ambient temperature (25° C.). Treatments were in triplicate, and the contents of the flask were gently swirled before being sampled at the times indicated. Short-chain volatile fatty acids and L-lactate in the flasks were determined as described in Example 1. […] This is a desirable effect in some cases because it rapidly lowers the pH which contributes to inhibiting the overall fermentation of the wastes, and more ammonia nitrogen will be retained in the wastes.

On to `Cc1ccc(C(C)C)cc1O` [carvacrol], for which, in [1] (sealed flasks), the “recoveries compared with thymol” value is on record as “similar”. Further, in [2], the “concentration that will kill E. coli O157:H7” value was 500 µg/mL and the minimum inhibitory concentration was 3000 µM (≈ 451 µg/mL). Moreover, in data set [2] (value in brackets), the “concentration that will kill E. coli O157:H7” value was 3.3 mM. Further, in [3], the “production of short-chain volatile fatty acids” value is “equally or slightly better” and the “concentration that suppressed essentially all fermentation activity” value is 13.3 mM. Further, the fecal coliforms entry in [4] (13.3 mM, at 14 days) was “none were detected”. Besides, the fecal coliforms entry in data set [4] (13.3 mM, within 2 days (P<0.01)) is “reduced”. Moreover, the fecal coliforms entry in data set [4] (20 mM, after 2 days) is “No fecal coliforms were detected”. In data set [5], the methane detected entry was “Trace amounts”; the gas production result was “essentially stopped most gas production”; the production of propionate result is “inhibited”; the “production of valerate, isovalerate, isobutyrate and cresol” value is recorded as “prevented any production”. Also, in [5], the lactate accumulation result was “accumulated” and the “concentration required to suppress most fermentation activity” value is 16.75 mM. In addition, the “effect of dissolving in ethanol on ability to inhibit VFA production” value in data set [6] (dissolved in ethanol before addition (P>0.05)) is “no effect”. For the same compound, in data set [6] (three concentrations (P<0.01), open jars), the “production of VFAs” value was “inhibited the production of VFAs”. In data set [7], the “number of viable anaerobic bacteria” value is listed as “reduced”. Besides, the minimum inhibitory concentration in data set [8] is 1000 µM (≈ 150 µg/mL).

For the compound `C=CCc1ccc(O)c(OC)c1` [eugenol], the “control of total VFA production compared to 2000 ppm (13.3 mM) thymol” value in data set [9] (2000 or 2500 ppm (13.3 or 16 mM), 42-day period) was “equally or more effective”. Also, the L-lactate production result in data set [9] was “stimulates L-lactate production”. The “inhibition of VFA production, dependence” value in data set [9] (various concentrations) is “concentration dependent”.

As to `Cc1ccc(C(C)C)c(O)c1` [thymol], the “thymol recovered from the liquid or supernatant fraction” value in data set [1] (% of added, swine waste) is recorded as “less than 25%”. Moreover, the minimum inhibitory concentration in [2] is 3000 µM (≈ 451 µg/mL). Moreover, in data set [3], the “production of short-chain volatile fatty acids” value is “equally or slightly better” and the “concentration that suppressed essentially all fermentation activity” value was determined as 13.3 mM. Also, the L-lactate production result in data set [9] is “inhibits production of L-lactate”. Besides, in [5], the methane detected result is given as “Trace amounts”; the gas production entry is on record as “essentially stopped most gas production”; the production of propionate entry is “inhibited”; the “production of valerate, isovalerate, isobutyrate and cresol” value is “prevented any production”. Moreover, in data set [5], the lactate accumulation entry is “accumulated” and the “concentration required to suppress most fermentation activity” value was 16.75 mM. Moreover, in data set [8], the minimum inhibitory concentration is 1000 µM (≈ 150 µg/mL).
